Molecules are shown by their SMILES.

This assay relates to diabetic neuropathy. The assay can be described thus: action of minoxidil on diabetic neuropathy (one foot minoxidil, other foot placebo, blinded). The assay is classed as in vivo, human. An excerpt:
Example: action of minoxidil on diabetic neuropathy. A subject with a history of type II diabetes and painful symmetric diabetic neuropathy with stable blood sugars for at least 4 weeks prior to beginning therapy had minoxidil applied to one foot and placebo applied to the other foot in a blinded fashion. […] They had not taken any other pain medication 3 months prior to initiating treatment and during treatment. They also had significant skin dryness. Within 2 weeks the subject reported a VAS score improvement of 3 on the foot with the minoxidil treatment.

`Nc1cc(N2CCCCC2)nc(N)[n+]1[O-]` [minoxidil, 6-(1-piperidinyl)pyrimidine-2,4-diamine 3-oxide]: the Re-growth of hair result (foot treated with minoxidil vs placebo foot, subject had hair loss on the feet up to mid-calf) is “Re-growth of hair was found on the side treated with minoxidil only”. Besides, where the note is “foot treated with minoxidil vs placebo foot, subject had significant skin dryness”, the “Improvement of the dryness of the skin” value is recorded as “Improvement of the dryness of the skin was also noted on the side treated with minoxidil only”. Where the note is “person, type II diabetes, painful symmetric diabetic neuropathy, minoxidil applied to one foot, within 2 weeks”, this compound showed a VAS score improvement of 3.

The values are drawn from US20090018151A1, “Topical Treatment of Peripheral diabetic complications” (priority 2007, published 2009).
